Assays:
[1] = system: creeping bentgrass (A. stolonifera); assay: Germination bioassay with creeping bentgrass; assay type: in vivo, Agrostis stolonifera; settings: 1 mM; 24-well plates; rating scale of 0 to 5
Description: (§1) DCM extract of flowers of A. visnaga (1.6 g) was divided in two 800 mg halves and each one was subjected to column chromatography using an Isolera One system (Biotage), equipped with UV detector (302 and 365 nm) and automatic fraction collector. Separation was performed by normal-phase chromatography column using a SNAP Cartridge KP-Sil (37×157 mm, 50 μm irregular silica, 100 g, Biotage) and a pre-packaged SNAP Samplet Cartridge KP-Sil (37×17 mm, Biotage). A full gradient of hexane:ethyl acetate was used for elution, from 100:0 to 0:100 over 3000 ml. Flow was 40 ml/min and 25 ml fractions were collected. Equal fractions were combined based on similarities on their TLC and chromatogram profiles providing nineteen fractions named I to XIX. All fractions were evaluated for their phytotoxicity on germination bioassay of lettuce (L. sativa) and creeping bentgrass (A. stolonifera).
(§2) A filter paper and 5 lettuce or 10 mg of creeping bentgrass seeds were placed in each well of a 24-well plate. Stock solutions (10×) of test compounds were prepared in acetone. 180 μl of distilled water were added to each well together with 20 μl of stock solution or acetone in solvent control. Final concentration of acetone was 10% v/v. Plates were sealed with Parafilm, and incubated at 26° C. in a growth chamber set at 173 μmol m^−2 s^−1 continuous photosynthetically active radiation. Phytotoxic activity was qualitatively evaluated by visually comparing germination in each well with solvent control at 7 days. A qualitative estimation of phytotoxicity was obtained by using a rating scale of 0 to 5, where 0 was no effect, and 5 was no germination of seeds. This procedure was also used for testing the phytotoxicity of pure compounds on ryegrass. On this experiment 12-well plates were used. 10 seeds were placed per well and final volume was 300 μl in each one. During dose-response bioassays used for IC50 determination, germination percentage and length of plants were measured at 7 days in order to determine the concentration required for 50% germination and growth inhibition (IC50). All experiments were done in triplicate.

[2] = system: lettuce (Lactuca sativa); assay: Germination / dose-response bioassay with lettuce; assay type: in vivo; settings: 1 mM; 24-well plates; rating scale of 0 to 5
Description: as §1, §2
Using method described in Example 1, compounds of Formula III and IV above were tested against lettuce and ryegrass.
The percentage of germination and length of plants were determined at 7 days. Data represents means of three replicates±SD. The IC50 values, for both germination and growth inhibition by compounds III and IV on lettuce and ryegrass, were obtained from estimated parameters in the regression curves.
Statistical Analysis. Data from dose-response experiments were analyzed by a log-logistic model^37-38 using the dose-response curve module^39 of R software version 2.2.1.^40 Concentrations required for 50% germination or growth inhibition relative to control (IC50 values) were obtained from estimated parameters in the regression curves. The standard error (SE) of each estimation is provided. Data from phytotoxicity bioassays in the laboratory and greenhouse, ROS and cell death quantifications were analyzed by ANOVA using the InfoStat statistical software version 2015,^41 and Scheffe's test was employed to compare the means at α=0.05.

[3] = system: ryegrass; assay: Postemergence bioassay with ryegrass in Petri dishes; assay type: in vivo; settings: Lolium multiflorum, post-emergence, day 6 (4 days after application), read-out: Growth inhibition (%) as percentage of control
Description: Plant length was measured at day 6 (4 days after application of the compounds)
Plant length's axis starts in 5 mm because seeds were pre-incubated in water, so all seedlings were around 5 mm long at the beginning of the treatment.

[4] = system: lettuce; assay: Postemergence bioassay with lettuce in Petri dishes; assay type: in vivo; settings: Lactuca sativa, post-emergence, read-out: Average growth inhibition (%) as percentage of control
Description: Compounds of formula III and IV above were tested at different concentrations in a postemergence bioassay (in Petri dishes) against lettuce. Lettuce seeds were pre-incubated in Petri dishes with a filter paper and water for 2 days. After that, seedlings (15 mm approx.) were moved to a new Petri dish containing 4 mL of an aqueous solution of each compound or commercial herbicide. Plants length was measured at day 6 (4 days after postemergence application of the compounds). The results were compared to those obtained with acetochlor and glyphosate.
Plant length's axis starts in 15 mm because seeds were pre-incubated in water, so all seedlings were around 15 mm long at the beginning of the treatment.

SMILES: Cc1cc(=O)c2c(O)c3ccoc3c(O)c2o1 [4,9-dihydroxy-7-methyl-5H-furo[3,2-g]chromen-5-one]
- Phytotoxicity at day 7, Creeping bentgrass [1]: 1
- Phytotoxicity at day 7, Lettuce [2]: 3

SMILES: COc1c2occc2c(OC)c2c(=O)cc(C(=O)O)oc12 [4,9-dimethoxy-5-oxo-5H-furo[3,2-g]chromen-7-carboxilic acid]
- Phytotoxicity at day 7, Creeping bentgrass [1]: 3
- Phytotoxicity at day 7, Lettuce [2]: 3

SMILES: CCOCN(C(=O)CCl)c1c(C)cccc1CC [Acetochlor, reference compound]
- inhibition at 540 µM ([3]; 540 μM): 97%
- inhibition at 540 µM ([4]; 0.54 mM, day 6 (4 days after postemergence application)): 60%

SMILES: O=C(O)CNCP(=O)(O)O [Glyphosate, reference compound]
- inhibition at 750 µM ([3]; 750 μM): 75%
- inhibition at 750 µM [4]: 45%

SMILES: COc1c2occc2c(O)c2c(=O)cc(C)oc12 [4-hydroxy-9-methoxy-7-methyl-5H-furo[3,2-g]chromen-5-one]
- Phytotoxicity at day 7, Creeping bentgrass [1]: 1
- Phytotoxicity at day 7, Lettuce [2]: 2

SMILES: O=c1ccoc2ccccc12 [Chromone, 1-benzopyran-4-one]
- Phytotoxicity at day 7, Creeping bentgrass [1]: 4
- Phytotoxicity at day 7, Lettuce [2]: 3

SMILES: COc1c2ccoc2cc2oc(COC3OC(CO)C(O)C(O)C3O)cc(=O)c12 (centres unmarked) [Khelloside, Khellol-glucoside]
- Phytotoxicity at day 7, Creeping bentgrass [1]: 2
- Phytotoxicity at day 7, Lettuce [2]: 1

Reference: patent US11083197B2, “Herbicidal composition comprising chromone derivatives and a method for weed control” (INVESTIGACIONES BIOLÓGICAS EN AGROQUÍMICOS ROSARIO S.A., priority 2015, dated 2021)
